Values joined by “and” are separate entries in the source; they are usually repeats but may differ in a detail not shown here. Equal values may be shown once.
Legend:
[1] = excipient alone; cited from earlier work
[2] = test system: Colon 51/A; assay: antitumor activity in mice against Colon 51/A; type: in vivo; details: p.o. days 3-7
Experimental: (§1) Representative examples of the invention were tested for antitumor activity in mice according to the following procedure:
(§2) The animals were pooled, implanted subcutaneously with 30 to 60 mg tumor fragments by 12-gauge trocar, and again pooled before unselective distribution to the various treatment and control groups. For early-stage treatment, chemotherapy was started within 1 to 5 days after tumor implantation while the number of cells was relatively small (10^7 to 10^8 cells). For advanced-stage treatment, chemotherapy was delayed until the tumor became relatively large (200 to 300 mg in size). A 300-mg tumor contains approximately 3×10^8 total cells. […] Tumors were measured with a caliper weekly (or twice weekly for the more rapidly growing tumors). Mice were sacrificed when their tumors reached 1500 mg (i.e., before they can cause the animal discomfort). Tumor weights were estimated from two-dimensional measurements.
(§3) The treatment and control groups were measured when the control group tumors reached approximately 700 to 1200 mg in size (Median of Group). The median tumor weight of each group was determined (including zeros). […] A T/C value <10% is considered to indicate highly significant antitumor activity.

[3] = test system: Mammary 16/C/Adr; assay: antitumor activity in mice against Mammary 16/C/Adr (adriamycin resistant); type: in vivo; details: mouse, in vivo
Experimental: as §1
The animals were pooled, implanted subcutaneously with 30 to 60 mg tumor fragments by 12-gauge trocar, and again pooled before unselective distribution to the various treatment and control groups. For early-stage treatment, chemotherapy was started within 1 to 5 days after tumor implantation while the number of cells was relatively small (10^7 to 10^8 cells). For advanced-stage treatment, chemotherapy was delayed until the tumor became relatively large (200 to 300 mg in size). A 300-mg tumor contains approximately 3×10^8 total cells. Tumors within a given advanced-stage trial were within a 2.5-fold size range for 90% of the animals. Tumors were measured with a caliper weekly (or twice weekly for the more rapidly growing tumors). Mice were sacrificed when their tumors reached 1500 mg (i.e., before they can cause the animal discomfort). Tumor weights were estimated from two-dimensional measurements.
The treatment and control groups were measured when the control group tumors reached approximately 700 to 1200 mg in size (Median of Group). The median tumor weight of each group was determined (including zeros). The T/C value (weight of treated tumors over the weight of control tumors) in percent is an indication of antitumor effectiveness: A T/C equal to or less than 42% is considered significant antitumor activity by the Drug Evaluation Branch of the Division of Cancer Treatment (NCl). A T/C value <10% is considered to indicate highly significant antitumor activity. A body weight loss nadir (mean of group) of greater than 20% or greater than 20% drug-deaths is considered to indicate an excessively toxic dosage.

[4] = test system: colon adenocarcinoma #38; assay: antitumor activity in mice against colon adenocarcinoma #38; type: in vivo
Experimental: as §1, §2, §3
The results are shown in Table I for pancreatic ductal adenocarcinoma #03 and in Table 2 for colon adenocarcinoma #38.

| Structure (SMILES) | glass transition temperature of excipient [1] | T/C Value ([2]; 250 mg/kg total) | Wt. Loss at Nadir ([2]; 250 mg/kg total) | T/C Value ([2]; 500 mg/kg total) | Wt. Loss at Nadir ([2]; 500 mg/kg total) | Drug Deaths [3] | T/C Value ([4]; 112 mg/kg total, i.p. days 3-10) | T/C Value ([4]; 196 mg/kg total, i.p. days 3-10) | T/C Value ([4]; 275 mg/kg total, p.o. days 3-7) | T/C Value ([4]; 340 mg/kg total, i.p. days 3-10) | T/C Value ([4]; 550 mg/kg total, p.o. days 3-7) | Drug Deaths ([4]; mouse, in vivo) |
| --- | --- | --- | --- | --- | --- | --- | --- | --- | --- | --- | --- | --- |
| OC[C@H]1O[C@@](CO)(O[C@H]2O[C@H](CO)[C@@H](O)[C@H](O)[C@H]2O)[C@@H](O)[C@@H]1O [sucrose] | -32 °C |  |  |  |  |  |  |  |  |  |  |  |
| CCN(CC)CCNc1ccc(CN(C)S(C)(=O)=O)c2sc3ccccc3c(=O)c12 [Example 8(a), N-[[1-[[2-(Diethylamino)ethyl)amino]-9-oxothioxanthen-yl]methyl]N-methylmethanesulfonamide] |  | 16% | -1.6 g/mouse | 0% | -4.6 g/mouse | 5/6 and 3/6 and 0/4 | 3% | 0% | 0% | 0% | 0% | 0 |

From US5665760A, “Lyophilized thioxanthenone antitumor agents” (priority 1995, dated 1997)
